# Assay results as given in publication PMC3731256, “Optimization of Substituted 6-Salicyl-4-Anilinoquinazoline Derivatives as Dual EGFR/HER2 Tyrosine Kinase Inhibitors” (PLoS ONE, 2013).
# Where two headings read alike, the source gives them in different places.
# Assays:
# MCF-7 cells = assay: Antiproliferation WST-1 assay, MCF-7; type: cell-based, human
# Experimental: (§1) WST-1 is better than MTT for analyzing cell proliferation, because it can be reduced to soluble formazan by dehydrogenase in mitochondria and has little toxicity to cells. Cell proliferation was determined using WST-1 dye (Beyotime Inst Biotech, China) according to manufacture’s instructions. Brieﬂy, 5 × 10^3 cells per well were seeded in a 96-well plate, grown at 37 ℃ for 24 h, and then placed in serum-starved conditions for a further 6 h. Subsequently, cells were treated with compounds (Table 1) at increasing concentrations in the presence of 10% FBS for 24 or 48h. After 10 µL WST-1 dye was added to each well, cells were incubated at 37 ℃ for 2 h and the absorbance was ﬁnally determined at 450 nm using a microplate reader.
# A431 cells = assay: Antiproliferation WST-1 assay, A431; type: cell-based, human
# Experimental: as §1
# human HER2 = biological target: T1, human HER2 (Homo sapiens, UniProt P04626); assay: HER2 kinase assay ([γ-32P] ATP, poly-Glu-Tyr); type: biochemical; conditions: phosphorylation of poly-Glu-Tyr copolymer; mean, >1 determination; read-out: Enzyme activity IC50 against HER2 kinase
# T1 construct: The cytoplasmic domain (amino acids 676-1255) of human HER2; FLAG (DYKDDDD) (N); made in house
# T1 sequence (P04626 676-1255): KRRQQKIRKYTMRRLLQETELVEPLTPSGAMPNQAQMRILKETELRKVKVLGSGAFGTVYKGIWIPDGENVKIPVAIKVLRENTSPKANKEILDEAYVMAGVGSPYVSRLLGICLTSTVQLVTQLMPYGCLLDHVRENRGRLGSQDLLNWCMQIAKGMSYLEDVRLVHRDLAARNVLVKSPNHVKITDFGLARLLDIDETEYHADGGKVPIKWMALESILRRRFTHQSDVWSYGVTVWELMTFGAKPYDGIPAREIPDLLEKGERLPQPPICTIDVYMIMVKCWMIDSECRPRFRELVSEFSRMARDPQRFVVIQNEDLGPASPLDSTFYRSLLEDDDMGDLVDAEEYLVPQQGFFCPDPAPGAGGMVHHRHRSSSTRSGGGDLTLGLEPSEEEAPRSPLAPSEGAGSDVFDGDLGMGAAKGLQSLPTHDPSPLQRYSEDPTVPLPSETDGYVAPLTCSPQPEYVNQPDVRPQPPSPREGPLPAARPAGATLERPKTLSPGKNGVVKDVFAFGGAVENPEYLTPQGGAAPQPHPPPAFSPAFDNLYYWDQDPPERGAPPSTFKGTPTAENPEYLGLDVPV
# Experimental: (§2) The expressed HER2 kinase and EGFR kinase were purified by anti-FLAG M2 affinity gel (Sigma-Aldrich, USA). The HER2 and EGFR kinase assays were performed using radiolabeled [γ-^32P] ATP (GEHealthcare, USA) in 96-well plates. The kinase reactions were performed in 50 mmol/L Tris-HCl, pH7.5, 5 mmol/L MnCl2, 0.01% Tween-20 and 2 mmol/L DTT containing 0.9 μCi of [γ-^32P] ATP per reaction, 50 μmol/L ATP, 5 μg/mL poly-Glu-Tyr (4:1) and 0.25 μg/mL of purified Her2 or EGFR cytoplasmic domain in a total volume of 50 μL. […] Kinase reactions were initiated by adding ATP. After the kinase reaction incubated for 10 minutes at room temperature, reactions were terminated by the addition of 10% (final concentration) trichloroacetic acid. The [γ-^32P]-phosphorylated proteins were filtered in a harvest plate (Millipore, USA) with a cell harvester (PerkinElmer, USA) and washed free of [γ-^32P] ATP with 3% phosphoric acid. The plates were dried, followed by the addition of 25 μL of MicroScintO (PerkinElmer, USA). Radioactivity was counted by a Topcount scintillation counter (PerkinElmer, USA).
# human EGFR = biological target: T2, human EGFR (Homo sapiens, UniProt P00533); assay: EGFR kinase assay ([γ-32P] ATP, poly-Glu-Tyr); type: biochemical; conditions: phosphorylation of poly-Glu-Tyr copolymer; mean, >1 determination; read-out: Enzyme activity IC50 against EGFR kinase
# T2 construct: the cytoplasmic domain (amino acids 669-1210) of human EGFR; FLAG (DYKDDDD) (N); made in house
# T2 sequence (P00533 669-1210): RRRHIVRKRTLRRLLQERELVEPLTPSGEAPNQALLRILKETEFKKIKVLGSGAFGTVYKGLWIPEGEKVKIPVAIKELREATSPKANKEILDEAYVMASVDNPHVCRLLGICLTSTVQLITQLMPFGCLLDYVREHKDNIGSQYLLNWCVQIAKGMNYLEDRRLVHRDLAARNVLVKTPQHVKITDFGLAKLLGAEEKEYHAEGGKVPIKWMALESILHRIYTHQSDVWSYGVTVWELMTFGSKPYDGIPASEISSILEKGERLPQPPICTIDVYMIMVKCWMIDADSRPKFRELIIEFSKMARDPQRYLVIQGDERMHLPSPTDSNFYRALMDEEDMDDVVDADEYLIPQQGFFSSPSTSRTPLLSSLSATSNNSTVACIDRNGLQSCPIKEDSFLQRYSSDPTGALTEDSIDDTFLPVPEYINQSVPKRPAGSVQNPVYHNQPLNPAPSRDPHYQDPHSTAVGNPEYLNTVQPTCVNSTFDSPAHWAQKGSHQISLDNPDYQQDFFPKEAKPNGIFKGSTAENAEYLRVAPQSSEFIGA
# Experimental: as §2
# A549 cells = assay: Antiproliferation WST-1 assay, A549; type: cell-based, human
# Experimental: as §1
# H1781 cells = assay: Antiproliferation WST-1 assay, H1781; type: cell-based; conditions: NCI-H1781, NSCLC, HER-2 G776ins V_G/C, lapatinib-resistant
# Experimental: as §1
# H1975 cells = assay: Antiproliferation WST-1 assay, H1975; type: cell-based; conditions: Homo sapiens, NCI-H1975, NSCLC, EGFR L858R/T790M
# Experimental: as §1
# MDA-MB-453 cells = assay: Antiproliferation WST-1 assay, MDA-MB-453; type: cell-based; conditions: Homo sapiens, breast cancer, HER-2++, PTEN deficiency
# Experimental: as §1
# [1] = Homo sapiens, MCF7, WST-1 assay, MCF-7 breast cancer, Her2/neu overexpression, read-out: Cellular IC50, MCF-7
# [2] = WST-1 assay, MCF-7 breast cancer, Her2/neu overexpression, read-out: Cellular IC50, MCF-7
# [3] = WST-1 assay, A549 carcinomic human alveolar basal epithelial cell, read-out: Cellular IC50, A549
# [4] = Homo sapiens, A-431, WST-1 assay, A431, overexpression of EGFR, read-out: Cellular IC50, A431
# [5] = WST-1 assay, A431, overexpression of EGFR, read-out: Cellular IC50, A431
# [6] = Homo sapiens, MCF7, read-out: Cellular IC50, MCF-7
# [7] = Homo sapiens, A549, read-out: Cellular IC50, A549
"IC50 (A431 cells; Homo sapiens, A-431, read-out: Cellular IC50, A431)",IC50 (MCF-7 cells; [6]),IC50 (A549 cells; [7]),IC50 (H1781 cells),IC50 (H1975 cells),IC50 (MDA-MB-453 cells),Structure (SMILES),IC50 (MCF-7 cells; [1]),IC50 (human HER2),IC50 (MCF-7 cells; [2]),IC50 (human EGFR),melting point,IC50 (A549 cells; [3]),IC50 (A431 cells; [4]),IC50 (A431 cells; [5])
< 1000 nM,–,–,–,–,–,"Nc1ccc2ncnc(Nc3cccc(Br)c3)c2c1 [Compound 7, N4-(3-bromophenyl)quinazoline-4,6-diamine]",< 1000 nM,–,–,–,–,–,–,–
–,–,–,–,–,–,"Oc1ccc(Cl)cc1CNc1ccc2ncnc(Nc3cccc(Br)c3)c2c1 [Compound 9, 2-((4-(3-bromophenylamino)quinazolin-6-ylamino)methyl)-4-chlorophenol]",< 1000 nM,1700 ± 51 nM,770 ± 8 nM,410 ± 24 nM,230 to 232 °C,2370 ± 89 nM,< 1000 nM,980 ± 3 nM
–,–,–,–,–,–,"Oc1c(Cl)cc(Cl)cc1CNc1ccc2ncnc(Nc3cccc(Br)c3)c2c1 [Compound 10, 2-((4-(3-bromophenylamino)quinazolin-6-ylamino)methyl)-4,6-dichlorophenol]",840 ± 4 nM,1100 ± 95 nM,–,720 ± 36 nM,214 to 216 °C,1930 ± 71 nM,1030 ± 27 nM,–
–,–,–,–,–,–,"Oc1ccc(Br)cc1CNc1ccc2ncnc(Nc3cccc(Br)c3)c2c1 [Compound 11, 4-bromo-2-((4-(3-bromophenylamino)quinazolin-6-ylamino)methyl)phenol]",900 ± 18 nM,1400 ± 3 nM,–,570 ± 8 nM,189 to 191 °C,2130 ± 128 nM,870 ± 9 nM,–
–,–,–,–,–,–,"Oc1c(Br)cc(Br)cc1CNc1ccc2ncnc(Nc3cccc(Br)c3)c2c1 [Compound 12, 2,4-dibromo-6-((4-(3-bromophenylamino)quinazolin-6-ylamino)methyl)phenol]",< 1000 nM,980 ± 2 nM,1070 ± 16 nM,950 ± 72 nM,169 to 171 °C,1820 ± 62 nM,< 1000 nM,1140 ± 36 nM
–,–,–,–,–,–,"Oc1ccc(Cl)cc1CNc1ccc2ncnc(Nc3cccc(Cl)c3)c2c1 [Compound 13, 4-chloro-2-((4-(3-chlorophenylamino)quinazolin-6-ylamino)methyl)phenol]",< 1000 nM,2300 ± 34 nM,920 ± 12 nM,830 ± 65 nM,238 to 240 °C,2170 ± 49 nM,< 1000 nM,1260 ± 51 nM
–,–,–,–,–,–,"Oc1c(Cl)cc(Cl)cc1CNc1ccc2ncnc(Nc3cccc(Cl)c3)c2c1 [Compound 14, 2,4-dichloro-6-((4-(3-chlorophenylamino)quinazolin-6-ylamino)methyl)phenol]",800 ± 5 nM,920 ± 9 nM,–,650 ± 9 nM,211 to 213 °C,1590 ± 38 nM,920 ± 62 nM,–
–,–,–,–,–,–,"Oc1ccc(Br)cc1CNc1ccc2ncnc(Nc3cccc(Cl)c3)c2c1 [Compound 15, 4-bromo-2-((4-(3-chlorophenylamino)quinazolin-6-ylamino)methyl)phenol]",810 ± 33 nM,3800 ± 2 nM,–,760 ± 73 nM,227 to 229 °C,2120 ± 22 nM,960 ± 5 nM,–
–,–,–,–,–,–,"Oc1c(Br)cc(Br)cc1CNc1ccc2ncnc(Nc3cccc(Cl)c3)c2c1 [Compound 16, 2,4-dibromo-6-((4-(3-chlorophenylamino)quinazolin-6-ylamino)methyl)phenol]",990 ± 6 nM,2100 ± 8.7 nM,–,890 ± 53 nM,207 to 209 °C,1650 ± 94 nM,1320 ± 126 nM,–
–,–,–,–,–,–,"O=C(Nc1ccc2ncnc(Nc3cccc(Br)c3)c2c1)c1ccc(Cl)cc1O [Compound 17, N-(4-(3-bromophenylamino)quinazolin-6-yl)-4-chloro-2-hydroxybenzamide]",1210 ± 29 nM,2800 ± 3.1 nM,–,1200 ± 71 nM,274 to 277 °C,1590 ± 35 nM,1460 ± 27 nM,–
–,–,–,–,–,–,"O=C(Nc1ccc2ncnc(Nc3cccc(Br)c3)c2c1)c1cc(Br)ccc1O [Compound 18, 5-bromo-N-(4-(3-bromophenylamino)quinazolin-6-yl)-2-hydroxybenzamide]",1230 ± 35 nM,1600 ± 12 nM,–,1300 ± 98 nM,297 to 299 °C,800 ± 4 nM,1620 ± 8 nM,–
–,–,–,–,–,–,"O=C(Nc1ccc2ncnc(Nc3cccc(Br)c3)c2c1)c1cc(Cl)ccc1O [Compound 19, N-(4-(3-bromophenylamino)quinazolin-6-yl)-5-chloro-2-hydroxybenzamide]",1120 ± 87 nM,1800 ± 9 nM,–,1070 ± 18 nM,304 to 306 °C,1770 ± 56 nM,1280 ± 13 nM,–
–,–,–,–,–,–,"O=C(Nc1ccc2ncnc(Nc3cccc(Br)c3)c2c1)c1cc(Br)cc(Br)c1O [Compound 20, 3,5-dibromo-N-(4-(3-bromophenylamino)quinazolin-6-yl)-2-hydroxybenzamide]",1310 ± 29 nM,2100 ± 66 nM,–,1400 ± 23 nM,274 to 276 °C,1800 ± 167 nM,1390 ± 23 nM,–
–,–,–,–,–,–,"O=C(Nc1ccc2ncnc(Nc3cccc(Cl)c3)c2c1)c1ccccc1O [Compound 22, N-(4-(3-chlorophenylamino)quinazolin-6-yl)-2-hydroxybenzamide]",610 ± 5 nM,840 ± 3 nM,–,160 ± 7 nM,117 to 120 °C,1390 ± 54 nM,740 ± 6 nM,–
–,–,–,–,–,–,"O=C(Nc1ccc2ncnc(Nc3cccc(Cl)c3)c2c1)c1ccc(Cl)cc1O [Compound 23, 4-chloro-N-(4-(3-chlorophenylamino)quinazolin-6-yl)-2-hydroxybenzamide]",550 ± 7 nM,1200 ± 22 nM,–,320 ± 8 nM,211 to 213 °C,1360 ± 16 nM,840 ± 9 nM,–
–,–,–,–,–,–,"Cc1ccc(C(=O)Nc2ccc3ncnc(Nc4cccc(Cl)c4)c3c2)c(O)c1 [Compound 24, N-(4-(3-chlorophenylamino)quinazolin-6-yl)-2-hydroxy-4-methylbenzamide]",470 ± 4 nM,2000 ± 182 nM,–,490 ± 3 nM,257 to 258 °C,1300 ± 12 nM,630 ± 4 nM,–
–,–,–,–,–,–,"O=C(Nc1ccc2ncnc(Nc3cccc(Cl)c3)c2c1)c1cc(Br)ccc1O [Compound 25, 5-bromo-N-(4-(3-chlorophenylamino)quinazolin-6-yl)-2-hydroxybenzamide]",740 ± 13 nM,2600 ± 133 nM,–,580 ± 7 nM,299 to 301 °C,1690 ± 78 nM,880 ± 11 nM,–
–,–,–,–,–,–,"CCOc1ccccc1C(=O)Nc1ccc2ncnc(Nc3cccc(Cl)c3)c2c1 [Compound 26, N-(4-(3-chlorophenylamino)quinazolin-6-yl)-2-ethoxybenzamide]",820 ± 82 nM,4100 ± 91 nM,–,6300 ± 76 nM,111 to 113 °C,1580 ± 93 nM,760 ± 2 nM,–
–,–,–,–,–,–,"O=C(Nc1ccc2ncnc(Nc3cccc(Br)c3)c2c1)c1ccc(Cl)cc1 [Compound 27, N-(4-(3-bromophenylamino)quinazolin-6-yl)-4-chlorobenzamide]",1290 ± 76 nM,4600 ± 226 nM,–,7700 ± 88 nM,230 to 232 °C,1780 ± 34 nM,1480 ± 34 nM,–
–,1070 ± 28 nM,920 ± 13 nM,–,–,–,"C#Cc1cccc(Nc2ncnc3cc(OCCOC)c(OCCOC)cc23)c1 [Erlotinib, reference compound]",–,–,–,–,–,–,–,–
–,210 ± 3 nM,1120 ± 22 nM,2100 ± 34 nM,3900 ± 419 nM,720 ± 23 nM,"CS(=O)(=O)CCNCc1ccc(-c2ccc3ncnc(Nc4ccc(OCc5cccc(F)c5)c(Cl)c4)c3c2)o1 [Lapatinib, reference compound]",–,–,–,–,–,–,–,–
